Results reported in US20250257071A9, “TRICYCLIC COMPOUND, METHOD FOR PREPARING SAME, AND USE THEREOF” (Sichuan Kelun-Biotech Biopharmaceutical Co., Ltd., priority 2021, published 2025).

Assays:
[1] = molecular target: human TLR8 (Homo sapiens (Human), UniProt Q9NR97); assay: Agonistic activity of compounds on HEK-Blue hTLR8 cells (QUANTI-Blue reporter, OD620); type: cell-based; conditions: for Emax (OD620): OD620 at maximum activation effect
Description: • 1. HEK-Blue hTLR8 cells (Invivogen) were cultured in DMEM medium (Hyclone) containing 10% FBS heat-inactivated fetal bovine serum (Corning). On the day of detection, the cell state was observed under a microscope, the cells were collected and resuspended, and the cell concentration was adjusted after counting, 50 μL per well, the total amount of cells was 2×10^4, and the cells were inoculated in a 96-well plate. • 2. After the cells adhered to the wall overnight, 50 μL of the test compound at different concentrations was added to the well plate, so that the final concentrations were 100 μM, 25 μM, 6.25 μM, 1.56 μM, 0.39 μM, 0.10 μM, 0.02 μM, 0.006 μM, 0 μM, or 100 μM, 33.3 μM, 11.11 μM, 3.70 μM, 1.23 μM, 0.41 μM, 0.14 μM, 0.05 μM, 0 μM, and the final concentration of DMSO was 1%. The compound was incubated with the cells in a 37° C., 5% CO2 incubator for 20 hours. • 3. After the incubation, observation was performed under microscope to determine the maximum signal well, the state of the cells with the highest and lowest concentrations of the compound, and whether the compound will crystalize at high concentration. 10 μL of cell culture supernatant was transferred to a new 96-well transparent plate, added with 90 μL of QUANTI-Blue (Invivogen) detection reagent to each well, incubated at 37° C. for 3 hours, and OD620 was read with a multifunctional microplate reader (BMG LABTECH). • 4. EC50 was calculated by fitting with Graphpad Prism software log(agonist) vs. Response—Variable slope, and Emax was the OD620 at which the activation effect of the test compound reached the maximum.

[2] = molecular target: human TLR7 (Homo sapiens (Human), UniProt Q9NYK1); assay: Agonistic activity of compounds on HEK-Blue hTLR7 cells (QUANTI-Blue reporter, OD620); type: cell-based; conditions: for Emax (OD620): OD620 at maximum activation effect
Sequence of human TLR7 (Q9NYK1 27-1049): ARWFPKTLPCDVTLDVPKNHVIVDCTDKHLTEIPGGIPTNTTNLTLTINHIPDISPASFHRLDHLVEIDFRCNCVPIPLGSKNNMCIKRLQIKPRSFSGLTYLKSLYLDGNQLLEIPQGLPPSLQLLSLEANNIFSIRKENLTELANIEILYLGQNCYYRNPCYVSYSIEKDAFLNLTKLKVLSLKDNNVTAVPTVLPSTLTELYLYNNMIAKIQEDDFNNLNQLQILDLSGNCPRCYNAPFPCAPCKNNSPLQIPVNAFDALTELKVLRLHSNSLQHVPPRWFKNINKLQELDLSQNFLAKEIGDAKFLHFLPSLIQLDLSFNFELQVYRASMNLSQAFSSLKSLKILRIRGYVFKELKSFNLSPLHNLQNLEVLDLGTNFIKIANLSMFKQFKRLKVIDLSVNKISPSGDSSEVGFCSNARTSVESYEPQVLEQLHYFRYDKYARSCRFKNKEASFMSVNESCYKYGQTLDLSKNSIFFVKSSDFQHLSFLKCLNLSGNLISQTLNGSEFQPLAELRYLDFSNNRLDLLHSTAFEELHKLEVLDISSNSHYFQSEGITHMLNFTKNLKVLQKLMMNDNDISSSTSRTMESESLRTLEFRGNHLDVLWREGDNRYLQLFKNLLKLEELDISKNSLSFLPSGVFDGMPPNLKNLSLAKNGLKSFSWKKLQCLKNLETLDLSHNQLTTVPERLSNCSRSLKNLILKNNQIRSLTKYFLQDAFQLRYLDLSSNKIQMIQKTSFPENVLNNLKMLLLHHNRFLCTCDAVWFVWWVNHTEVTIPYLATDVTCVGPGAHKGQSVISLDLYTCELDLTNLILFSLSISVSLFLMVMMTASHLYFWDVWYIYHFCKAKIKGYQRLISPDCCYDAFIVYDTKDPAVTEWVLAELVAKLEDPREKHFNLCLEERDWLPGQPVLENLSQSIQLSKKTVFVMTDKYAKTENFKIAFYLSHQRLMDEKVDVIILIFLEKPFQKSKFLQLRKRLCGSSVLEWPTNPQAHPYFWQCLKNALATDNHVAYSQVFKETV
Description: • 1. HEK-Blue hTLR7 cells (Invivogen) were cultured in DMEM medium (Hyclone) containing 10% FBS heat-inactivated fetal bovine serum (Corning). On the day of detection, the cell state was observed under a microscope, the cells were collected and resuspended, and the cell concentration was adjusted after counting, 50 μL per well, the total amount of cells was 2×10^4, and the cells were inoculated in a 96-well plate. • 2. After the cells adhered to the wall overnight, 50 μL of the test compound at different concentrations was added into the well plate, so that the final concentrations were 100 μM, 33.3 μM, 11.11 μM, 3.70 μM, 1.23 μM, 0.41 μM, 0.14 μM, 0.05 μM, 0 μM, and the final concentration of DMSO was 1%. The compound was incubated with the cells in a 37° C., 5% CO2 incubator for 20 h. • 3. After the incubation, observation under microscope was performed to determine the maximum signal well, the states of the cells with the highest and lowest concentrations of the compound, and whether the compound will crystalize at high concentration. 10 μL of cell culture supermatant was taken and transferred to a new 96-well transparent plate, 90 μL of QUANTI-Blue (Invivogen) detection reagent was added to each well, and incubated at 37° C. for 3 h, and OD620 was read with a multifunctional microplate reader (BMG LABTECH). • 4. EC50 was calculated by fitting with Graphpad Prism software log(agonist) vs. response—Variable slope, and Emax was the (D620 at which the activation effect of the test compound reached the maximum.

Sequence of human TLR8 (Q9NR97 27-1041): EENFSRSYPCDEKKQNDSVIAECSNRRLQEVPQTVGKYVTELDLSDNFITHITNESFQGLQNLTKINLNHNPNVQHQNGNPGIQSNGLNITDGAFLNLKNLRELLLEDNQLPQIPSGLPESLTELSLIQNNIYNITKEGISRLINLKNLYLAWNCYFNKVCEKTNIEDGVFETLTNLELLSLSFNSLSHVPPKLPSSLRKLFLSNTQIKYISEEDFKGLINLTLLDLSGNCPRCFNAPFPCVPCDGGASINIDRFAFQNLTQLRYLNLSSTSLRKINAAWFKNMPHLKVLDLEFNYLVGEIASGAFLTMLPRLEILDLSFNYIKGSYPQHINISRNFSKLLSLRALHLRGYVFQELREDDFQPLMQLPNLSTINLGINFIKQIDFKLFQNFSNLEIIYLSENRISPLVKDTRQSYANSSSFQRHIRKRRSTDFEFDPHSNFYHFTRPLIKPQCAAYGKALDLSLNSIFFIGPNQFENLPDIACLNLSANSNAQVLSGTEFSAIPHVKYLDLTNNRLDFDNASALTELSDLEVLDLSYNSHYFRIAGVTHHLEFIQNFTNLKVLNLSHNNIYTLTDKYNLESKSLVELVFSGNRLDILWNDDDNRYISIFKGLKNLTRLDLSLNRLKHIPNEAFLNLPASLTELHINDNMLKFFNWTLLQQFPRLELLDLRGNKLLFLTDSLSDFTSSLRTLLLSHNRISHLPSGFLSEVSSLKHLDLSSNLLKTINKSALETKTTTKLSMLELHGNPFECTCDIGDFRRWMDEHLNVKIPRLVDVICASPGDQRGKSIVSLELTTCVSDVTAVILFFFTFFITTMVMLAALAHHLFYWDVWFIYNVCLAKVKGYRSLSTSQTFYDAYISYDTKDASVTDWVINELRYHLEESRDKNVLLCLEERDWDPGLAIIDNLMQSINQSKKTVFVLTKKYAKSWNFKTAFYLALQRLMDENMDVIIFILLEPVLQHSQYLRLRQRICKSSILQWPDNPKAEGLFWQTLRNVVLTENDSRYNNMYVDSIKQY

Row | Structure (SMILES) | activation effect on human TLR8 (in words) [1] | Emax (OD620) [1] [OD620] | activation effect on human TLR7 (in words) [2] | Emax (OD620) [2] [OD620]
1 | CCCCc1nc2c(N)nc3cc(C)sc3c2n1CCCCN [Compound 1, 1-(4-aminobutyl)-2-butyl-7-methyl-1H-imidazo[4,5-d]thieno[3,2-b]pyridine-4-amine] | strong activation effect | 1.43 | strong activation effect | 1.36
2 | CCCCc1nc2c(N)nc3ccsc3c2n1CCCCN [Compound 2, 1-(4-aminobutyl)-2-butyl-1H-imidazo[4,5-d]thieno[3,2-b]pyridine-4-amine] | strong activation effect | 1.37 | strong activation effect | 1.36
3 | CCCCc1nc2c(N)nc3cc(C)sc3c2n1CC1CCNCC1 [Compound 3, 2-butyl-7-methyl-1-(piperidin-4-ylmethyl)-1H-imidazo[4,5-d]thieno[3,2-b]pyridine-4-amine] | strong activation effect | 1.86 | strong activation effect | 1.43
4 | CCCCc1nc2c(N)nc3cc(C4CCN(C)CC4)sc3c2[nH]1 [Compound 6, 2-butyl-7-(1-methylpiperidin-4-yl)-1H-imidazo[4,5-d]thieno[3,2-b]pyridine-4-amine] | strong activation effect | 1.11 | strong activation effect | 1.08
5 | CCCCc1nc2c(N)nc3ccsc3c2n1CC1CCN(C)CC1 [Compound 27, 2-butyl-1-[(1-methylhexahydropyridin-4-yl)methyl]thieno[3,2-b]imidazo[4,5-d]pyridine-4-amine] | strong activation effect | 0.84 | strong activation effect | 1.59
6 | COCCc1nc2c(N)nc3ccsc3c2n1CC1CCNCC1 [Compound 55, 1-(hexahydropyridin-4-ylmethyl)-2-(2-methoxyethyl) thieno[3,2-b]imidazo[4,5-d]pyridine-4-amine] |  |  | strong activation effect | 1.44
7 | COCCc1nc2c(N)nc3ccsc3c2n1CC1CCN(C)CC1 [Compound 56, 2-(2-methoxyethyl)-1-[(1-methylhexahydropyridin-4-yl)methyl]thieno[3,2-b]imidazo[4,5-d]pyridine-4-amine] |  |  | strong activation effect | 1.41

Next, values leading:

Row | activation effect on human TLR8 (in words) [1] | Emax (OD620) [1] [OD620] | activation effect on human TLR7 (in words) [2] | Emax (OD620) [2] [OD620] | Structure (SMILES)
8 | strong activation effect | 0.67 | strong activation effect | 1.46 | CCCCc1nc2c(N)nc3cc(C4CCNCC4)sc3c2n1CC1CCOCC1 [Compound 33, 2-butyl-7-(hexahydropyridin-4-yl)-1-(3,4,5,6-tetrahydro-2H-pyran-4-ylmethyl)thieno[3,2-b]imidazo[4,5-d]pyridine-4-amine]
9 |  |  | strong activation effect | 1.83 | CCCCc1nc2c(N)nc3cc(C4CCOCC4)sc3c2n1CC1CCN(C)CC1 [Compound 40, 2-butyl-1-((1-methylpiperidin-4-yl)methyl)-7-(tetrahydro-2H-pyran-4-yl)-1H-imidazo[4,5-d]thieno[3,2-b]pyridine-4-amine]
10 |  |  | strong activation effect | 0.84 | CCCCc1nc2c(N)nc3cc(C4CCNCC4)sc3c2n1CC1CCN(CCOC)CC1 [Compound 41, 2-butyl-7-(hexahydropyridin-4-yl)-1-{[1-(2-methoxyethyl)hexahydropyridin-4-yl]methyl}thieno[3,2-b]imidazo[4,5-d]pyridine-4-amine]
11 |  |  | strong activation effect | 0.65 | CCCCc1nc2c(N)nc3cc(C4CCN(C)CC4)sc3c2n1CC1CCN(CCOC)CC1 [Compound 42, 2-butyl-1-{[1-(2-methoxyethyl)hexahydropyridin-4-yl]methyl}-7-(1-methylhexahydropyridin-4-yl)thieno[3,2-b]imidazo[4,5-d]pyridine-4-amine]
